Laboratory results published in patent US7396666B2, “Glycosyltransferase, nucleic acid encoding the glycosyltransferase and method of testing canceration using the nucleic acid” (National Institute of Advanced Industrial Science and …, priority 2002, dated 2008).
“Also recorded” adds a separate entry of the source. Like-named read-outs stand apart in the source and are kept apart here.

What was measured:
Format in all cases: biochemical
[1] = biological target: T1, G9 polypeptide (Homo sapiens, UniProt Q7Z7M8); test: Divalent metal ion requirement of G9 enzyme activity
T1 construct: made in house
T1 sequence (Q7Z7M8 26-397): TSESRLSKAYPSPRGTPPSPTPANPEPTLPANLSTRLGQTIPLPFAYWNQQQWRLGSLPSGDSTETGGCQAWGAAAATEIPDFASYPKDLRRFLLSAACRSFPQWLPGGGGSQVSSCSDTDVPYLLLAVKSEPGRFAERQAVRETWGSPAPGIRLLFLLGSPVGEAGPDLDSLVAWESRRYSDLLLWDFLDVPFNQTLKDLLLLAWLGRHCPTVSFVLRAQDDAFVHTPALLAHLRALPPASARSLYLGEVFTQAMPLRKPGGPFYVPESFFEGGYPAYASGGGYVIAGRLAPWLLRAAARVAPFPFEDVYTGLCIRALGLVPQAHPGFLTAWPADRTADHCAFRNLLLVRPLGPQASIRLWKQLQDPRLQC

[2] = biological target: T1, G9 polypeptide; test: β1,3-N-acetylglucosaminyltransferase activity with synthetic mono-/oligosaccharide acceptor substrates ([14C]UDP-GlcNAc donor, scintillation counting); settings: for transferring activity for acceptor substrate (in words): GlcNAc transfer by G9 to synthetic acceptor substrates; for Relative activity: Substrate specificity of G9, 10 μM acceptor substrate, UDP-GlcNAc donor, 37° C., usually 16 hours, ND = not detected
Procedure: The FLAG peptide-fused G9 polypeptide obtained in the example above was measured for a β1,3-N-acetylglucosaminyltransferase activity with monosaccharaide/oligosaccharide/glycolipid/glycoprotein as substrates according to known methods (e.g., the above-described references and FEBS, 462, 289 (1999), J. Biol. Chem. 269, 14730-14737 (1994), J. Biol. Chem., 267, 23507 (1992), and J. Biol. Chem., 267, 2994 (1992)).
pNp-α-Glc, pNp-β-Glc, pNp-α-GlcNAc, pNp-β-GlcNAc, pNp-α-Gal, oNp-β-Gal, pNp-α-GalNAc, pNp-α-Xyl, oNp-β-Xyl, pNp-α-Fuc, Bz-α-Man, Bz-α-ManNAc, core1-α-pNp, core3-α-pNp, Bz-β-lactoside, GlcNAcβ1-4GlcNAcβ-Bz, and Galβ1-4GlcNAcα-pNp were used as acceptor substrates (see Table 5). These substrates can be purchased from, for example, Sigma Corp. or Toronto Research Chemicals Inc.
A basic reaction solution in the case of using a radiolabeled substrate as the donor substrate comprises 20 μl in total of 14 mM HEPES buffer (pH 7.4), 10 mM MnCl2, 0.15% Triton CF-54, 0.75 mM ATP, 50 μM UDP-GlcNAc (manufactured by Sigma), 4.5 μM (50 nCi) [^14C]UDP-GlcNAc (manufactured by Amersham Biosciences), 10 μM substrate (each of the above-described acceptor substrates), and an appropriate amount (5 to 10 μl) of the purified enzyme protein (enzyme source obtained in Example 4). Enzyme reaction was carried out at 37° C. for several hours up to 16 hours (usually for 16 hours).
After the completion of reaction, the resulting solution was supplemented with 200 μl of 0.1M KCl and lightly centrifuged, and then a supernatant was obtained. After being washed once with 10 ml of methanol, the supernatant was loaded onto Sep-Pak C18 Cartridge (Waters) equilibrated by two-time washing with 10 ml of 0.1 M KCl, and the substrate and a product in the supernatant were adsorbed in the cartridge. After the cartridge was washed twice with 1 ml of pure water for HPLC, the adsorbed substrate and product were eluted with 1 ml of methanol. Following the mixing with a liquid scintillator (ACSII; manufactured by Amersham Biosciences), the amount of radiation from the product was measured with a scintillation counter.

[3] = biological target: T1, G9 polypeptide; test: Buffer and pH dependence of G9 enzyme activity
Procedure: Buffer conditions were investigated using the same reaction solution and reaction time as above but using HEPES (pH 6.75 to 7.4) and sodium cacodylate (pH 6.4 to 7.2) instead of 14 mM HEPES buffer (pH7.4) (see FIG. 2A).

[4] = biological target: T1, G9 polypeptide; test: Activity measurement with glycoproteins as acceptor substrates (SDS-PAGE, autoradiography, glycopeptidase F digestion); settings: 40 μg acceptor glycoprotein, 37° C., FIG. 4
Procedure: Enzyme reaction was carried out with glycoproteins as substrates. A reaction solution comprised 20 μl in total of 14 mM HEPES buffer (pH 7.4), 10 mM MnCl2, 0.15% Triton CF-54, 0.75 mM ATP, 50 μM UDP-GlcNAc (manufactured by Sigma), 4.5 μM (50 nCi) [^14C]UDP-GlcNAc (manufactured by Amersham Biosciences), 40 μg of an acceptor substrate, and an appropriate amount (5 to 10 μl) of a purified enzyme protein. A αl-acid glycoprotein (orosomucoid; manufactured by Sigma), ovalbumin (manufactured by Sigma), or ovomucoid (manufactured by Sigma) was used as the above described acceptor substrate. The enzyme purified with the anti-FLAG M1 antibody affinity gel in Example 4 was used as the above-described purified enzyme protein.
Reaction was carried out at 37° C. for several hours up to 16 hours. A portion of a reaction product was subjected to enzyme digestion with glycopeptidase F (GPF; manufactured by TAKARA) according to the instruction. The samples both before and after enzyme digestion were analyzed by 10% SDS-PAGE (see FIG. 4).

[5] = metal ions at 2.5, 10 and 40 mM instead of 10 mM MnCl2, FIG. 2B

[Cl][Mn][Cl] [Mn ion, MnCl2]
effect of divalent metal ion on G9 activity (in words) [1, 5]: particularly remarkably enhanced

[Cl-].[Cl-].[Zn+2] [Zn, ZnCl2]
effect of divalent metal ion on G9 activity (in words) [1, 5]: no enhancing effect is substantially observed

OC[C@H]1O[C@@H](O[C@H]2[C@H](O)[C@@H](O)[C@H](OCc3ccccc3)O[C@@H]2CO)[C@H](O)[C@@H](O)[C@H]1O [Lactoside β-Bz]
transferring activity for acceptor substrate (in words) ([2]; listed as Bz-β-lactoside): significant activity; also recorded: a certain amount of transferring activity | Relative activity [2]: 27%

[Cl-].[Cl-].[Co+2] [Co ion, CoCl2]
effect of divalent metal ion on G9 activity (in words) [1]: significantly enhanced

[Cl-].[Cl-].[Mg+2] [Mg, MgCl2]
effect of divalent metal ion on G9 activity (in words) [1, 5]: no enhancing effect is substantially observed

[Cl][Cd][Cl] [Cd, CdCl2]
effect of divalent metal ion on G9 activity (in words) [1, 5]: slight enhancing effect

CC(=O)N[C@H]1[C@@H](Oc2ccc([N+](=O)[O-])cc2)O[C@H](CO)[C@@H](O[C@@H]2O[C@H](CO)[C@H](O)[C@H](O)[C@H]2O)[C@@H]1O [Galβ1-4GlcNAcα-pNP]
transferring activity for acceptor substrate (in words) [2]: particularly strong activity; also recorded: highest transferring activity | Relative activity [2]: 100%

[Cl][Ni][Cl] [Ni, NiCl2]
effect of divalent metal ion on G9 activity (in words) [1, 5]: slight enhancing effect

B1: G9 polypeptide: novel human β1,3-N-acetyl-D-glucosaminyltransferase, FLAG peptide-fused, amino acids 26 to 397 of SEQ ID NO: 2 (SEQ ID NO: 16) (protein, listed as Homo sapiens)
chain: T1 sequence (Q7Z7M8 26-397)
modifications: FLAG peptide
pH of maximum activity ([3]; HEPES buffer (pH 6.75 to 7.4), FIG. 2A): ~7.0 | pH dependence of activity (in words) ([3]; sodium cacodylate buffer, pH 6.4 to 7.2, FIG. 2A): rises with an increase in pH

B2: ovalbumin (protein, UniProt P01012 2-386, looked up)
Ovalbumin: GSIGAASMEFCFDVFKELKVHHANENIFYCPIAIMSALAMVYLGAKDSTRTQINKVVRFDKLPGFGDSIEAQCGTSVNVHSSLRDILNQITKPNDVYSFSLASRLYAEERYPILPEYLQCVKELYRGGLEPINFQTAADQARELINSWVESQTNGIIRNVLQPSSVDSQTAMVLVNAIVFKGLWEKAFKDEDTQAMPFRVTEQESKPVQMMYQIGLFRVASMASEKMKILELPFASGTMSMLVLLPDEVSGLEQLESIINFEKLTEWTSSNVMEERKIKVYLPRMKMEEKYNLTSVLMAMGITDVFSSSANLSGISSAESLKISQAVHAAHAEINEAGREVVGSAEAGVDAASVSEEFRADHPFLFCIKHIATNAVLFFGRCVSP
notes: glycoprotein acceptor substrate manufactured by Sigma
GlcNAc-transferring activity for glycoprotein acceptor substrate (in words) [4]: relatively weak activity
